Measured values taken from ChEMBL document CHEMBL5576078, “Discovery of a potent, orally available furopyridine derivative as a novel selective bromodomain and extra-terminal domain (BET)-first bromodomain (BD1) inhibitor” (Bioorg Med Chem Lett, 2024).

Legend:
[1] = Inhibition of LPS induced IL-6 production in HMVEC cells; details: Homo sapiens
[2] = target: T1, Bromodomain-containing protein 4 (Homo sapiens, UniProt O60885); test: Inhibition of BRD4 BD1 (unknown origin) by TR-FRET assay
[3] = target: T1, Bromodomain-containing protein 4; test: Inhibition of BRD4 BD2 (unknown origin) by TR-FRET assay
[4] = target: T1, Bromodomain-containing protein 4; test: Inhibition of BRD4 BD1 (unknown origin)

Compound	IC50 [1]	IC50 [2]	IC50 [3]	IC50 [4]
Cc1sc2c(c1C)C(c1ccc(Cl)cc1)=N[C@@H](CC(=O)OC(C)(C)C)c1nnc(C)n1-2	45 nM			
C[C@@H]1CN(S(C)(=O)=O)CCN1Cc1cc2c(=O)n(C)cc(-c3cccc(NS(C)(=O)=O)c3)c2o1		27 nM	1500 nM	
C[C@@H]1CN(S(C)(=O)=O)CCN1Cc1cc2c(=O)n(C)cc(-c3cc(NS(C)(=O)=O)ccc3OCC3CC3)c2o1		11 nM	20 nM	
C[C@@H]1CN(S(C)(=O)=O)CCN1Cc1cc2c(=O)n(C)cc(-c3nc(Cl)c(Cl)n3CC3CCOCC3)c2o1		150 nM	8800 nM	
C[C@@H]1CN(S(C)(=O)=O)CCN1Cc1cc2c(=O)n(C)cc(-c3nccnc3OCC3CC3)c2o1		18 nM	1600 nM	
C[C@@H]1CN(S(C)(=O)=O)CCN1Cc1cc2c(=O)n(C)cc(-c3cc(Cl)nn3CC3CCOCC3)c2o1		180 nM	3600 nM	
C[C@@H]1CN(S(C)(=O)=O)CCN1Cc1cc2c(=O)n(C)cc(-c3nc(Cl)cn3CC3CCOCC3)c2o1		53 nM	> 10000 nM	
CC(=O)Nc1cc(-c2cn(C)c(=O)c3cc(CN4CCN(S(C)(=O)=O)C[C@H]4C)oc23)ccn1		63 nM	650 nM	≤ 100 nM
